Patent US20170304178A1, “Peptides and Their Use in the Treatment of Skin” (AVON PRODUCTS, INC., priority 2014, published 2017)
Marks after values point to notes of the source that are not given here. Residues, ends and D or L forms follow the SMILES beside them.

Experiments:
[1] = tested on: human dermal fibroblast cells; experiment: Secreted pro-collagen I in media of human dermal fibroblasts (HTRF human pro-collagen I kit); assay type: cell-based; conditions: 48 h, percent change relative to vehicle control
Experimental: (§1) Human dermal fibroblast cells were grown in a 96 well plate in DMEM media (available from Corning, N.Y.) supplemented with 10% Fetal Bovine Serum (FBS) and L-glutamine (0.07×10^5 cells/plate). After reaching about 75% confluence, cells were transferred into DMEM media without FBS and incubated for 4-6 hours. Next, cells were treated with peptides of Formulas I-V at 0.00001%, 0.0001%, 0.001% final concentration in DMEM media without FBS for 48 h. After treatment the media were collected, and cell viability was measured using MTT. The amount of secreted collagen was tested in the media using HTRF human pro-collagen I kit (Cisbio Inc, Bedford, Mass.). The amount of secreted Hyaluronic Acid (HA) was tested in the media using HA Elisa kit (available from Corgenix, Broomfield, Colo.).
(§2) Results are summarized in Table 1 below as percent change of pro-collagen I and HA production relative to vehicle control: […]

[2] = tested on: human dermal fibroblast cells; experiment: Secreted hyaluronic acid (HA) in media of human dermal fibroblasts (HA Elisa kit); assay type: cell-based; conditions: 48 h, percent change relative to vehicle control
Experimental: as §1, §2

CC(NC(=O)CNC(=O)C(CC(=O)O)NC(=O)C(CCCCN)NC(=O)C(C)NC(=O)C(N)C(C)O)C(=O)NC(C(=O)O)C1CCCN1 (stereo not drawn) [TAKDGAP (SEQ ID NO: 3), Thr-Ala-Lys-Asp-Gly-Ala-Pro]
Increase in Pro-Collagen I Production ([1]; peptide concentration 0.00001%): +10-30%**
Increase in HA Production ([2]; peptide concentration 0.001%): +50-90%

CCC(C)C(N)C(=O)NC(Cc1ccccc1)C(=O)NCC(=O)NCC(=O)NC(C(=O)NC(C(=O)NC(Cc1ccc(O)cc1)C(=O)NC(CCCNC(=N)N)C(=O)NC(CO)C(=O)O)C(C)C)C(C)O (stereo not drawn) [IFGGTVYRS (SEQ ID NO: 4), Ile-Phe-Gly-Gly-Thr-Val-Tyr-Arg-Ser] (H-IFGGTVYRS-OH; configuration not given here)
Increase in Pro-Collagen I Production ([1]; peptide concentration 0.001%): +10-30%
Increase in HA Production ([2]; peptide concentration 0.001%): +50-90%

CCC(C)C(NC(=O)C(CCCCN)NC(=O)C(NC(=O)C(NC(=O)C(N)CCCNC(=N)N)C(C)O)C1CCCN1)C(=O)NC(CO)C(=O)NC(CCCCN)C(=O)NC(C(=O)NC(C(=O)NC(CCCCN)C(=O)NC(Cc1ccccc1)C(=O)NC(CCC(=O)O)C(=O)NC(CC(C)C)C(=O)NC(CO)C(=O)NCC(=O)O)C(C)CC)C1CCCN1 (stereo not drawn) [RTPKISKPIKFELSG (SEQ ID NO: 5), Arg-Thr-Pro-Lys-Ile-Ser-Lys-Pro-Ile-Lys-Phe-Glu-Leu-Ser-Gly]
Increase in HA Production ([2]; peptide concentration 0.001%): +20-50%

CSCCC(N)C(=O)NC(C(=O)NC(C(=O)O)C(C)C)C(C)C (stereo not drawn) [MVV (SEQ ID NO: 2), Met-Val-Val] (H-Met-Val-Val-OH; configuration not given here)
Increase in HA Production ([2]; peptide concentration 0.0001%): +20-50%

CC(C)CC(N)C(=O)NC(CCCNC(=N)N)C(=O)NC(CC(C)C)C(=O)NC(CCCCN)C(=O)O (stereo not drawn) [LRLK (SEQ ID NO: 1), Leu-Arg-Leu-Lys] (H-LRLK-OH; configuration not given here)
Increase in HA Production ([2]; peptide concentration 0.001%): +20-50%
